What is called IC50 is the point on the concentration scale where inhibition reaches its midpoint. What is called pIC50 is −log10 of the IC50, conventionally taken in molar units.

pIC50: −log10 of the molar value. Where two headings read alike, the source gives them in different places.

Experimental findings from patent US20060147934A1, “High speed assay for glycosyl transferases” (priority 2003, published 2006) are described below.

One assay concerns MraY/MurG couple. Kind of assay: Coupled assay of MraY and MurG using HP20ss beads. In kind it is biochemical, E. coli. To be noted: titration of the MraY/MurG couple, 0.5 mg/mL protein at 10 min time (FIG. 5, Panel B). As for the experimental part:
The MraY/MurG coupled assay reaction procedure was identical to that described above for the assay of MraY. However, quantitation of the coupled system was performed by monitoring the incorporation of radiolabeled MurG co-substrate UDP-N-[1-^14C]acetyl-glucosamine into the lipophilic product Lipid II. Accordingly, this assay mixture was modified to contain 100 mM Tris, pH 7.5, 30 mM MgCl2, 0.15% Triton X-100, 40 μM decaprenol phosphate, 100 μM UDP-MurNAc-pentapeptide, 100 ug/ml phosphatidyl glycerol, and 20 μM, 0.1 μCi UDP-N-[1-^14C]acetyl-glucosamine and typically 0.5 mg/mL of E. coli cell membranes in a final volume of 50 μL. All other procedures, times and temperatures were identical to those described for the MraY assay.

For the next assay, the target named is T1, MraY (Escherichia coli, UniProt P0A6W3).
T1 construct: MraY activity measured in membranes prepared from wild-type E. coli; endogenous in cells
T1 sequence (P0A6W3 1-360): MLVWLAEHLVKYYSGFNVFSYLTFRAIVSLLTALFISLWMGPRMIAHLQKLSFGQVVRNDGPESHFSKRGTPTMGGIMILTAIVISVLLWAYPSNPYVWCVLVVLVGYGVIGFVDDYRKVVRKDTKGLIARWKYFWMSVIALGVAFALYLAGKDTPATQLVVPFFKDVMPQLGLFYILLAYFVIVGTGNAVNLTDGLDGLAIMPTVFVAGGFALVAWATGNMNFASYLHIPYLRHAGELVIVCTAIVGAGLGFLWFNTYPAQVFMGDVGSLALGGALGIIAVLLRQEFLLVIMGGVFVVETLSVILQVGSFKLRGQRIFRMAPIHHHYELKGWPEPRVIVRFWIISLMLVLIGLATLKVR
Briefly: Assay of MraY using HP20ss hydrophobic beads. In kind it is biochemical, E. coli. The procedure: The reaction catalyzed transfer and use of the radiotracer are shown in FIG. 2, Panel A. The general course of manipulations are diagramed in FIG. 2, Panel D and described in the text. The reaction mixture for the MraY assay included 100 mM Tris, pH 7.5, 30 mM MgCl2, 0.15% Triton X-100, 100 μg/ml Phosphatidyl Glycerol, 40 μM decaprenol phosphate, 14 μM UDP-MurNAC-[^14C]pentapeptide (prepared as described above) and typically 0.5 mg/mL of E. coli cell membranes in a final volume of 50 μL. The phosphatidyl glycerol and decaprenol phosphate, which are supplied in organic solvent, were dried in the reaction tube before the addition of the other components.
The HP20ss resin used to isolate the Lipid I product from the above reaction mixture was equilibrated before use. Briefly, the dry resin was mixed thoroughly with excess methanol in a beaker and allowed to settle for 45 min. […]
For assays whereby the reaction is analyzed at various times, a larger reaction volume was prepared (50 μL is typically appropriate for each time point). […] The filterplate was then quantitated by liquid scintillation spectrometry with a TOPCOUNT (PERKIN ELMER LIFE SCIENCES, Downers Grove, Ill.) using 200 μL of scintillation cocktail (MICROSCINT 40, PERKIN ELMER LIFE SCIENCES, Downers Grove, Ill.) per well.

ramoplanin: the IC50 entry with MraY/MurG couple is “approximately 17 μg/mL”; in the assay on MraY/MurG couple (listed as ramoplainin) it was 17 µg/mL.
Consider tunicamycin, for which the IC50 entry against MraY (membranes from wild-type E. coli, bead format (text to FIG. 5, Panel A)) was “approximately 1 μg/mL”. The negative logarithm of the IC50 (pIC50) at MraY (titration of the MraY assay, 0.5 mg/mL protein at 10 min time (FIG. 5, Panel A), read-out: IC50) was 5.96.
